Data from patent US11311553B1, “Methods of treating 4-repeat tauopathies” (priority 2020, dated 2022).

Legend:
PSP = conditions: literature clinical trials in PSP patients; cited from earlier work
[1] = 1-hydroxy (M3) metabolite formed in vivo; cited from earlier work
[2] = system: subjects with probable or possible PSP; experiment: Fasudil treatment of subjects with probable or possible PSP, assessed at baseline, six months and one year; assay type: in vivo, human; conditions: fasudil 180 mg/day (60 mg tid)

In the case of `CC[C@H](C)[C@H](NC(=O)[C@H](CO)NC(=O)[C@@H](NC(=O)[C@@H]1CCCN1C(=O)[C@H](C)NC(=O)[C@@H](N)CC(N)=O)C(C)C)C(=O)N1CCC[C@H]1C(=O)N[C@@H](CCC(N)=O)C(=O)O` [Davunetide], the “clinical effect / benefit in PSP” value (PSP) is listed as “not shown not to be effective”.

In the case of `O=S(=O)(c1cccc2c(O)nccc12)N1CCCNCC1` [M3, hydroxyfasudil], the half-life [1] is given as “about 8 hours”.

For `O=C(Oc1ccccc1C(=O)O)c1ccccc1O` [Salsalate], the “clinical effect / benefit in PSP” value (PSP) is listed as “failed”.

In the case of `C=CC1O[C@H]2C[C@H]3OC[C@@]3(OC(C)=O)[C@H]3[C@H](OC(=O)c4ccccc4)[C@]4(O)C[C@H](OC(=O)[C@H](O)[C@H](CC(C)C)NC(=O)OC(C)(C)C)C(C)=C([C@H](OC(C)=O)[C@H](O1)[C@]23C)C4(C)C` (some centres unmarked) [TPI 287], the “clinical effect / benefit in PSP” value (PSP) is given as “failed to show any effect”.

In the case of `COC1=C(OC)C(=O)C(C/C=C(\C)CC/C=C(\C)CC/C=C(\C)CC/C=C(\C)CC/C=C(\C)CC/C=C(\C)CC/C=C(\C)CC/C=C(\C)CC/C=C(\C)CCC=C(C)C)=C(C)C1=O` [coenzyme Q10], the “clinical effect / benefit in PSP” value (PSP) is given as “failed to provide benefit”.

With `Cl.O=S(=O)(c1cccc2cnccc12)N1CCCNCC1` [fasudil, Hexahydro-1-(5-isoquinolinesulfonyl)-1H-1,4-diazepine monohydrochloride hemihydrate] the Oculomotor parameters [2] was “improve” and the sleep parameters [2] was “improve”.

In the case of `Nc1nc2ccc(OC(F)(F)F)cc2s1` [riluzole], the “clinical effect / benefit in PSP” value (PSP) is given as “failed to demonstrate effects”.

For `O=c1sn(-c2cccc3ccccc23)c(=O)n1Cc1ccccc1` [tideglusib], the “clinical effect / benefit in PSP” value (PSP) is given as “failed to show benefit”.

B1: ABBV-8E12: humanized anti-tau monoclonal antibody (antibody, chains of the INN, looked up, V domains shown)
VH: EVKVVESGGGLVQPGGSMKLSCVVSGFTFSNYWVNWVRQAPGKGLEWVAQIRLKSDNYATHYEESVKGRFTISRDDSKSSVYLQMNNLRAEDSGIYYCTNWEDYWGQGTTVTVSS
VL: DIVLTQSPDSLAVSLGERATISCRASQSVSTSRYSYIHWYQQKPGQPPKLLIKYASNLESGVPSRFSGSGSGTDFTLNIHPLEPEDFATYYCHHSWEIPLTFGQGTKLEIK
In the case of B1, the “clinical effect / benefit in PSP” value (PSP) is listed as “failed to demonstrate an effect”.

B2: Gosuranemab: a humanized monoclonal antibody that targets N-terminal tau (antibody, chains of the INN, looked up, V domains shown)
VH: EVHLVESGGALVKPGGSLRLSCAASGFSFSKYGMSWVRQAPGKGLEWVATISSSGSRTYYPDSVKGRFTISRDNAKNTLYLQMNSLRAEDTAMYYCSISWDGAMDYWGQGTTVTVSS
VL: DVVMTQSPLSLPVTLGQPASISCKSSQSIVHSNGNTYLEWYLQKPGQSPQLLVYKVSNRFSGVPDRFSGSGSGTDFTLKISRVEAEDVGTYYCFQGSLVPWAFGGGTKVEIK
In the case of B2, the “clinical effect / benefit in PSP” value (PSP) is listed as “no effect”.
